Measured values taken from article PMC7830897 (Viruses, 2021).
Several values for one entry are separate records, joined by “and”; a condition that tells them apart may be missing. Identical values can stand only once. Entries after “also recorded” stand apart in the source; their conditions may differ. Like-named read-outs stand apart in the source and are kept apart here.

How the values were obtained:
human cardiomyocytes = test: Human cardiomyocyte function (video-based contractility analysis); type: cell-based; settings: 50 µM
HBV [1] = test: Antiviral efficacy in nude mice bearing HBV transfected AD38 xenografts; type: in vivo; settings: for difference in T/V ratios (HBV titers) versus no-drug / placebo control group: day 45
[2] = Centrifree ultrafiltration device
[3] = 2% FBS (used to measure potency in vitro), 10 µM
[4] = Single-dose plasma pharmacokinetics in male cynomolgus monkeys; settings: for AUCtotal: mean n = 3, extrapolated; for t1/2: mean n = 3, terminal
[5] = humanized mice, 60 mg/kg per day PO for 10 weeks; cited from earlier work
HBV [6] = test system: HBV; design: method as in earlier work; settings: 2% FBS, cited from earlier work
[7] = design: method as in earlier work; settings: CD-1 mice, cited from earlier work
[8] = cynomolgus monkey plasma (1 donor), 10 µM
[9] = human, 10 µM
[10] = cited from earlier work
[11] = 1 mg/kg IV infusion, mean n = 3
[12] = eight of the ten mice, GLP-26 55 mg/kg 3 times per week via feeding tube, to day 45

For `COc1nc(N)nc2c1ncn2[C@@H]1O[C@H](COP(=O)(N[C@@H](C)C(=O)OCC(C)(C)C)Oc2cccc3ccccc23)[C@@H](O)[C@@]1(C)O` (stereo partly drawn) [BMS-986094], the “resumption of cardiomyocyte beating” value (human cardiomyocytes) was “resumed after 8 h with an unstable rhythm” and the “time until cardiomyocyte beating stopped” value (human cardiomyocytes) was ≤ 2 h.

With `C=C1[C@H](CO)[C@@H](O)C[C@@H]1n1cnc2c(=O)[nH]c(N)nc21` [ETV, entecavir, reference compound] the “difference in T/V ratios (HBV titers) versus no-drug / placebo control group” value (HBV [1]) was 3 log10.

In the case of `C#CCNC(=O)C(=O)c1c(C)c(C(=O)Nc2ccc(F)c(F)c2)n(C)c1C` [GLP-26], the non-specific adsorption [2] is reported as “approximately 2.6%”, the “percent bound in 2% FBS” value [3] is reported as 17.9% and the AUMC [4, 11] is reported as 1058 ng·mL^−1·h^2. It also gave a CL [4, 11] of 1.106 L·h/kg, a Cmax [4, 11] of 2513 ng/mL and an MRT [4, 11] of 1.2 h. For the same compound, the Tmax [4, 11] was 0.40 h, the Vss [4, 11] was 1.065 Lkg^−1 and the AUCtotal ([4]; 1 mg/kg IV infusion) was 986.6 ± 316.5 ng·h/mL and 986.6 ng·h/mL. The t1/2 ([4]; 1 mg/kg IV infusion) was 0.77 h, the “Cmax relative to in vitro EC50 versus HBV” value ([4]; 5 mg/kg PO) was ~ 30 times and the AUMC ([4]; 5 mg/kg PO, mean n = 3) was 7435 ng·mL^−1·h^2. It also gave a Cmax ([4]; 5 mg/kg PO, mean n = 3) of 380.7 ng/mL, an MRT ([4]; 5 mg/kg PO, mean n = 3) of 4.19 h and a Tmax ([4]; 5 mg/kg PO, mean n = 3) of 0.67 h. For the same compound, the AUCtotal ([4]; 5 mg/kg PO) was 1660 ng·h/mL and 1660 ± 530 ng·h/mL, the t1/2 ([4]; 5 mg/kg PO) was 2.4 h and 2.44 h and the “signs of toxicity in monkeys” value ([4]; single IV (1 mg/kg) or PO (5 mg/kg) doses) was “appeared healthy prior to dosing and throughout the duration of the study; also recorded: No signs of toxicity were observed”. For the same compound, the tolerability [5] was “safely administered”, the “in vitro EC50 versus HBV” value (HBV [6]; converted from nM) was ~ 1.1 ng/mL and the “in vitro EC90 versus HBV” value (HBV [6]; converted from nM) was ~ 11 ng/mL. The EC50 (HBV [6]; read-out: in vitro EC50 versus HBV) was 3 nM, the EC90 (HBV [6]; read-out: in vitro EC90 versus HBV) was 30 nM and the “terminal t1/2” value ([7]; IV 15 mg/kg) was 1.6 h. For the same compound, the PO bioavailability ([7]; PO 30 mg/kg, IV 15 mg/kg) was 61%, the “terminal t1/2” value ([7]; PO 30 mg/kg) was > 6 h and the “difference in T/V ratios (HBV titers) versus no-drug / placebo control group” value (HBV [1]) was 2.5 log10. The “mean rebound in T/V” value (HBV [1]; [12]) was 13.8 fold, the “mean rebound in T/V (log10)” value (HBV [1]; [12]) was 1.14 log10 and the “percent bound in plasma” value [8] was 86.7%.

In the case of `Nc1nc(=O)n([C@@H]2CS[C@H](CO)O2)cc1F` [emtricitabine], the “percent bound in plasma” value [9] is listed as 0.8% and the “percent bound (reported)” value [10] is listed as < 4%.

In the case of `Cc1cccc(C)c1OCC(=O)N[C@@H](Cc1ccccc1)[C@@H](O)C[C@H](Cc1ccccc1)NC(=O)[C@H](C(C)C)N1CCCNC1=O` [lopinavir], the “percent bound in plasma” value [9] is reported as 97.9%.
